Experimental data from the NIST ThermoML archive (doi:10.1016/j.jct.2010.08.019).

Test: refractive index (Na D-line) (dimensionless); xn = mol fraction of the nth substance listed
Details: 101 kPa, Liquid, Standard Abbe refractometry

C1CCOCC1 [tetrahydropyran] + CC(C)O
Details | refractive index
293.15 K, x2 = 0 | 1.39161
293.15 K, x2 = 0.0501 | 1.39085
293.15 K, x2 = 0.0999 | 1.3902
293.15 K, x2 = 0.1499 | 1.38954
293.15 K, x2 = 0.2003 | 1.38897
293.15 K, x2 = 0.2506 | 1.38839
293.15 K, x2 = 0.2999 | 1.38777
293.15 K, x2 = 0.35 | 1.38719
293.15 K, x2 = 0.3999 | 1.3866
293.15 K, x2 = 0.4499 | 1.38599
293.15 K, x2 = 0.5001 | 1.38539
293.15 K, x2 = 0.5502 | 1.38478
293.15 K, x2 = 0.6001 | 1.38415
293.15 K, x2 = 0.6499 | 1.38347
293.15 K, x2 = 0.7001 | 1.3827
293.15 K, x2 = 0.7499 | 1.38194
293.15 K, x2 = 0.8 | 1.38113
293.15 K, x2 = 0.8501 | 1.38021
293.15 K, x2 = 0.9001 | 1.37932
293.15 K, x2 = 0.9499 | 1.37832
303.15 K, x2 = 0 | 1.3866
303.15 K, x2 = 0.0502 | 1.38571
303.15 K, x2 = 0.1001 | 1.38505
303.15 K, x2 = 0.1501 | 1.38441
303.15 K, x2 = 0.1998 | 1.38377
303.15 K, x2 = 0.2499 | 1.3832
303.15 K, x2 = 0.3 | 1.38259
303.15 K, x2 = 0.3499 | 1.38201
303.15 K, x2 = 0.4001 | 1.38144
303.15 K, x2 = 0.4501 | 1.38087
303.15 K, x2 = 0.5001 | 1.38026
303.15 K, x2 = 0.55 | 1.37965
303.15 K, x2 = 0.6 | 1.37903
303.15 K, x2 = 0.65 | 1.37841
303.15 K, x2 = 0.6999 | 1.37775
303.15 K, x2 = 0.7499 | 1.37704
303.15 K, x2 = 0.8001 | 1.37633
303.15 K, x2 = 0.85 | 1.37553
303.15 K, x2 = 0.8998 | 1.37469
303.15 K, x2 = 0.9499 | 1.3738
313.15 K, x2 = 0 | 1.38143
313.15 K, x2 = 0.05 | 1.38065
313.15 K, x2 = 0.1 | 1.37995
313.15 K, x2 = 0.1501 | 1.37929
313.15 K, x2 = 0.2 | 1.37868
313.15 K, x2 = 0.2499 | 1.37807
313.15 K, x2 = 0.2997 | 1.37748
313.15 K, x2 = 0.3499 | 1.37692
313.15 K, x2 = 0.4 | 1.37632
313.15 K, x2 = 0.4504 | 1.37573
313.15 K, x2 = 0.5001 | 1.37513
313.15 K, x2 = 0.55 | 1.37457
313.15 K, x2 = 0.5999 | 1.37399
313.15 K, x2 = 0.65 | 1.37339
313.15 K, x2 = 0.7001 | 1.3728
313.15 K, x2 = 0.7502 | 1.37216
313.15 K, x2 = 0.7999 | 1.37151
313.15 K, x2 = 0.85 | 1.37081
313.15 K, x2 = 0.8998 | 1.37005
313.15 K, x2 = 0.9498 | 1.36931
323.15 K, x2 = 0 | 1.37627
323.15 K, x2 = 0.05 | 1.3752
323.15 K, x2 = 0.1 | 1.37442
323.15 K, x2 = 0.1501 | 1.37378
323.15 K, x2 = 0.2 | 1.37312
323.15 K, x2 = 0.2499 | 1.37252
323.15 K, x2 = 0.2997 | 1.37192
323.15 K, x2 = 0.3499 | 1.37127
323.15 K, x2 = 0.4 | 1.37072
323.15 K, x2 = 0.4504 | 1.37012
323.15 K, x2 = 0.5001 | 1.3695
323.15 K, x2 = 0.5501 | 1.36901
323.15 K, x2 = 0.6 | 1.36843
323.15 K, x2 = 0.65 | 1.36789
323.15 K, x2 = 0.6999 | 1.36729
323.15 K, x2 = 0.7502 | 1.36664
323.15 K, x2 = 0.8002 | 1.36608
323.15 K, x2 = 0.8501 | 1.36542
323.15 K, x2 = 0.8998 | 1.36485
323.15 K, x2 = 0.9501 | 1.3642
